Like-named read-outs stand apart in the source and are kept apart here.
What was measured:
[1] = test system: hepatic esterases of MLS9; assay: Identification of hepatic esterases by chemical inhibition, curcumin formation rate, MLS9; settings: inhibitor 100 μM (EDTA 1 mM), preincubated 30 min at 37°C, MLS9 0.02 mg/ml, CDD 3 µM, 0.5 min
[2] = test system: hepatic esterases of HLS9; assay: Identification of hepatic esterases by chemical inhibition, curcumin formation rate, HLS9; settings: inhibitor 100 μM (EDTA 1 mM), preincubated 30 min at 37°C, HLS9 0.02 mg/ml, CDD 3 µM, 1 min
[3] = enzymatic hydrolysis, cited from earlier work
[4] = In vitro metabolism profiling of CDD in human liver S9 (1 mg/ml); assay type: in vitro ADME; settings: pooled liver S9; human LS9 1 mg/ml; read-out: t 1/2 (MSCUR)
Description: (§1) The metabolism profiles of CDD were investigated against HLS9, MLS9, DLS9, and RLS9. A stock solution of CDD was prepared at 150 µM in 50% acetonitrile in water before use. The metabolism study was initiated by spiking 735 µl of preincubated LS9 with 15 µl of CDD stock solution, and the mixture was subsequently incubated at 37°C. The final concentrations of CDD and LS9 were 3 μM and 1 mg/ml, respectively. A 50-µl aliquot from the mixture was collected at 0.5, 1, 2, 3, 4, 5, 10, 15, 30, 45, 60, 90, and 120 min and immediately mixed with 100 µl of ice-cold acetonitrile containing 0.45 µM of internal standard DMC to terminate the metabolic reaction. […] The sample at the initial time point (0 min) was prepared as the other samples, except that heat-inactivated HLS9, MLS9, DLS9, and RLS9 (80°C for 20 min; 1 mg/ml protein) were used.
(§2) The UHPLC system consisted of an Agilent series 1290 quaternary pump with an online degasser, autosampler, column oven, and diode array detector. The mobile phase was composed of (A) 0.1% (v/v) formic acid in acetonitrile and (B) 0.1% (v/v) formic acid in water. Each solution was filtered through a nylon filter (pore size, 0.22 µm; MS® Membrane Filters; Membrane Solutions, United States) before use. The mobile phase flow rate was kept at 1.2 ml/min in a gradient mode using the following elution program: 0–3.0 min, initial A-B (40:60, v/v); 4.5–7.0 min, isocratic elution A-B [50:50, (v/v); 8.5–11.0 min, isocratic elution A-B (60:40, v/v); and 12.0–17.0 min, isocratic elution A-B (40:60, v/v)]. CDD, curcumin, and MSCUR in the supernatant were partitioned using a C8 column (4.6 mm × 50 mm, 2.7 µm; HALO, Advanced Materials Technology, United States) with reference to DMC. The detection wavelength was set at 400 nm (λ max(CDD) = 400 nm, λ max(curcumin) = 427 nm, λ max(MSCUR) = 418 nm, and λ max(DMC) = 421 nm). The column was maintained at 35°C throughout the run, and the supernatant injection volume was set at 20 µl.
(§3) The concentrations of CDD, curcumin, and MSCUR in the supernatant were determined from the standard plots, which were prepared by spiking individual working solutions of the compounds to heat-inactivated HLS9, MLS9, DLS9, and RLS9 ([Alcorn et al., 2007]; [Montoro-Garcia et al., 2009]; [Singh et al., 2010]). These working standards were extracted with 100 µl of ice-cold acetonitrile containing 0.45 µM of DMC and then 120 μl of the supernatant was diluted with 40 μl of water prior to the UHPLC analysis. The peak area ratios of CDD, curcumin, and MSCUR to the internal standard were computed against linear concentration ranges of 0.025–4.5 µM CDD, 0.025–4.5 µM curcumin, and 0.0125–0.75 µM MSCUR, respectively, with the coefficient of determination (r^2) values greater than 0.99.
(§4) The percent content of CDD and the metabolites formed upon its incubation with LS9, namely, curcumin and MSCUR, was plotted against incubation time.
(§5) The following equations were adopted to describe the changes in CDD and MSCUR content over time (t): A = A0e^−k1t (2) B= k1A0/k2−k1(e^−k1t−e^−k2t), (3) where A0 is the CDD concentration at time 0, k 1 is the degradation rate constant of CDD, and k 2 is the degradation rate constant of MSCUR. k 1 and k 2 were determined by using Eqs. 2 and 3, respectively, with nonlinear regression analysis using the SOLVER function of Microsoft Excel for Office 365 MSO (16.0.12527.20986) ([Brown, 2001]). The half-life (t 1/2) was calculated using Eq. 4: t1/2=0.693/k (4)
(§6) The in vitro intrinsic clearance (CLint,in vitro) of CDD and MSCUR in LS9 was calculated using Eq. 5: CLint, in vitro= k × [V]incubation(ml)/[P]incubation(mg protein), (5) where [V]incubation is the incubation volume in ml, and [P]incubation is the amount of LS9. […]

human LS9 (HLS9; pooled) = assay: as above; assay type: in vitro ADME
Description: as §1, §2, §3, §4, §5, §6

[5] = In vitro metabolism profiling of CDD in monkey liver S9 (1 mg/ml); assay type: in vitro ADME, monkey (cynomolgus); settings: liver S9; monkey LS9 1 mg/ml; read-out: t 1/2 (MSCUR)
Description: as §1, §2, §3, §4, §5, §6

[6] = test system: monkey LS9 (MLS9; cynomolgus); assay: as above; assay type: in vitro ADME
Description: as §1, §2, §3, §4, §5, §6

[7] = In vitro metabolism profiling of CDD in dog liver S9 (1 mg/ml); assay type: in vitro ADME, dog (beagle); settings: beagle, liver S9; dog LS9 1 mg/ml; read-out: t 1/2 (MSCUR)
Description: as §1, §2, §3, §4, §5, §6

dog LS9 (DLS9; beagle) = assay: as above; assay type: in vitro ADME
Description: as §1, §2, §3, §4, §5, §6

[8] = In vitro metabolism profiling of CDD in rat liver S9 (1 mg/ml); assay type: in vitro ADME, rat (Sprague–Dawley); settings: Sprague-Dawley, liver S9; rat LS9 1 mg/ml; read-out: t 1/2 (MSCUR)
Description: as §1, §2, §3, §4, §5, §6

[9] = test system: rat LS9 (RLS9; Sprague–Dawley); assay: as above; assay type: in vitro ADME
Description: as §1, §2, §3, §4, §5, §6

[10] = test system: LS9 from all tested species (HLS9, MLS9, DLS9, RLS9); assay: In vitro metabolism profiling of CDD, statements for LS9 from all tested species; assay type: in vitro ADME, human, monkey, dog, rat
Description: as §1, §2
The concentrations of CDD, curcumin, and MSCUR in the supernatant were determined from the standard plots, which were prepared by spiking individual working solutions of the compounds to heat-inactivated HLS9, MLS9, DLS9, and RLS9 ([Alcorn et al., 2007]; [Montoro-Garcia et al., 2009]; [Singh et al., 2010]). […]
The following equations were adopted to describe the changes in CDD and MSCUR content over time (t): A = A0e^−k1t (2) B= k1A0/k2−k1(e^−k1t−e^−k2t), (3) where A0 is the CDD concentration at time 0, k 1 is the degradation rate constant of CDD, and k 2 is the degradation rate constant of MSCUR. k 1 and k 2 were determined by using Eqs. […] The half-life (t 1/2) was calculated using Eq. 4: t1/2=0.693/k (4)

Compound: C=CC[N+](C)(C)c1ccc(CCC(=O)CCc2ccc([N+](C)(C)CC=C)cc2)cc1.[Br-].[Br-] [1,5-bis(4-allyldimethylammoniumphenyl) pentan-3-one dibromide]
- inhibition of CDD hydrolysis in MLS9 (relative curcumin formation rate) [1]: no enzyme inhibitory effects

Compound: O=[N+]([O-])c1ccc(OP(=O)(O)Oc2ccc([N+](=O)[O-])cc2)cc1 [BNPP, Bis(4-nitrophenyl) phosphate]
- inhibition of CDD hydrolysis in HLS9 (relative curcumin formation rate) [2]: inhibited
- inhibition of CDD hydrolysis in MLS9 (relative curcumin formation rate) [1]: inhibited

Compound: O=C(O)c1cc(SSc2ccc([N+](=O)[O-])c(C(=O)O)c2)ccc1[N+](=O)[O-] [DTNB, 5,5′-dithiobis (2-nitrobenzoic acid)]
- inhibition of CDD hydrolysis in HLS9 (relative curcumin formation rate) [2]: to a lesser extent
- inhibition of CDD hydrolysis in MLS9 (relative curcumin formation rate) [1]: no enzyme inhibitory effects

Compound: O=C(O)CN(CCN(CC(=O)O)CC(=O)O)CC(=O)O [EDTA, ethylenediaminetetraacetic acid]
- inhibition of CDD hydrolysis in MLS9 (relative curcumin formation rate) [1]: no enzyme inhibitory effects

Compound: CC(C)OC(=O)[C@H](C)N[P@](=O)(OC[C@H]1O[C@@](C#N)(c2ccc3c(N)ncnn23)[C@](C)(O)[C@@H]1OC(=O)C(C)C)Oc1ccccc1 [GS-6620]
- t 1/2 ([3]; ref Murakami et al., 2014): approximately 4.0 min

Compound: CCOC(=O)CCC(=O)Oc1ccc(/C=C/C(=O)/C=C(O)/C=C/c2ccc(O)c(OC)c2)cc1OC [MSCUR, monoethylsuccinyl curcumin]
- half-life [4]: 3.456 ± 0.00252 s
- CLint, in vitro(MSCUR) (human LS9 (HLS9; pooled); human LS9): 12.07 ± 0.86 ml min^−1 mg protein^−1
- k 2 (MSCUR) (human LS9 (HLS9; pooled); human LS9 1 mg/ml, CDD 3 µM, 37°C): 12.07 ± 0.86 min⁻¹
- CLint, in vivo(MSCUR) (human LS9 (HLS9; pooled); human, scaled from CLint,in vitro): 2,251.20 ± 161.06 L h^−1 kg^−1
- half-life at 3 µM [5]: 2.034 ± 0.00324 s
- CLint, in vitro(MSCUR) of MLS9 higher than that of HLS9 ([6]; MLS9 vs HLS9): ~1.7 fold
- CLint, in vitro(MSCUR) ([6]; monkey LS9): 20.79 ± 3.13 ml min^−1 mg protein^−1
- k 2 (MSCUR) ([6]; monkey LS9 1 mg/ml, CDD 3 µM, 37°C): 20.79 ± 3.13 min⁻¹
- CLint, in vivo(MSCUR) ([6]; monkey, scaled from CLint,in vitro): 4,527.30 ± 682.15 L h^−1 kg^−1
- half-life at 3 µM [7]: 1.704 ± 0.0018 s
- CLint, in vitro(MSCUR) of DLS9 higher than that of HLS9 (dog LS9 (DLS9; beagle); DLS9 vs HLS9): approximately two
- CLint, in vitro(MSCUR) (dog LS9 (DLS9; beagle); dog LS9): 24.61 ± 2.55 ml min^−1 mg protein^−1
- k 2 (MSCUR) (dog LS9 (DLS9; beagle); dog LS9 1 mg/ml, CDD 3 µM, 37°C): 24.61 ± 2.55 min⁻¹
- CLint, in vivo(MSCUR) (dog LS9 (DLS9; beagle); dog, scaled from CLint,in vitro): 5,716.98 ± 592.58 L h^−1 kg^−1
- half-life at 3 µM [8]: 4.314 ± 0.00264 s
- CLint, in vitro(MSCUR) of RLS9 lower than that of HLS9 ([9]; RLS9 vs HLS9): 0.8 fold
- CLint, in vitro(MSCUR) ([9]; rat LS9): 9.66 ± 0.60 ml min^−1 mg protein^−1
- k 2 (MSCUR) ([9]; rat LS9 1 mg/ml, CDD 3 µM, 37°C): 9.66 ± 0.60 min⁻¹
- CLint, in vivo(MSCUR) ([9]; rat, scaled from CLint,in vitro): 2,805.37 ± 174.76 L h^−1 kg^−1
- maximum amount of M2 or MSCUR ([10]; at 0.5 min of incubation of CDD 3 µM in LS9): approximately 10%

Compound: O=C([O-])c1cc[c]([Hg][OH])cc1.[Na+] [PCMB, 4-(hydroxymercurio) benzoic acid sodium salt]
- inhibition of CDD hydrolysis in HLS9 (relative curcumin formation rate) [2]: inhibited
- inhibition of CDD hydrolysis in MLS9 (relative curcumin formation rate) [1]: no enzyme inhibitory effects

Compound: O=S(=O)(F)Cc1ccccc1 [PMSF, phenylmethylsulfonyl fluoride]
- inhibition of CDD hydrolysis in HLS9 (relative curcumin formation rate) [2]: to a lesser extent

Compound: C[C@@H]1CC[C@@]2(OC1)O[C@H]1[C@@H](O)[C@H]3[C@@H]4CC[C@H]5C[C@@H](O[C@@H]6O[C@H](CO)[C@H](O[C@@H]7O[C@H](CO)[C@@H](O)[C@H](O[C@@H]8OC[C@@H](O)[C@H](O)[C@H]8O)[C@H]7O[C@@H]7O[C@H](CO)[C@H](O)[C@H](O[C@@H]8O[C@H](CO)[C@@H](O)[C@H](O)[C@H]8O)[C@H]7O)[C@H](O)[C@H]6O)[C@H](O)C[C@]5(C)[C@H]4CC[C@]3(C)[C@H]1[C@@H]2C [digitonin]
- inhibition of CDD hydrolysis in HLS9 (relative curcumin formation rate) [2]: inhibited

Compound: CC(C)NP(=O)(NC(C)C)OP(=O)(NC(C)C)NC(C)C [iso-OMPA, tetra(monoisopropyl) pyrophosphortetramide]
- inhibition of CDD hydrolysis in HLS9 (relative curcumin formation rate) [2]: to a lesser extent

Compound: CN(C)C(=O)C(CCN1CCC(O)(c2ccc(Cl)cc2)CC1)(c1ccccc1)c1ccccc1 [loperamide]
- inhibition of CDD hydrolysis in HLS9 (relative curcumin formation rate) [2]: inhibited

Compound: COC(=O)[C@H](c1ccccc1Cl)N1CCc2sc(OC(C)=O)cc2C1 [vicagrel]
- t 1/2 ([3]; ref Qiu et al., 2016): approximately 1.6 min

Compound: curcumin
- curcumin (M1) produced ([10]; following 15 min of incubation of CDD 3 µM in each LS9): ~70%

From paper PMC7703437, “In Vitro Hepatic Metabolism of Curcumin Diethyl Disuccinate by Liver S9 from Different Animal Species” (Frontiers in Pharmacology, 2020)
